Our source for the inhibition values is ChEMBL document CHEMBL3351321, “Target evaluation of deoxyhypusine synthase from Theileria parva the neglected animal parasite and its relationship to Plasmodium” (Bioorg Med Chem, 2014).

Molecules are shown by their SMILES.

The test system of one assay is Theileria parva. Put plainly: Inhibition of Theileria parva deoxyhypusine synthase expressed in Escherichia coli Rosetta cells assessed as reduction in deoxyhypusine level at 2 uM.
The subject of a further assay is Plasmodium falciparum. As to the kind of experiment: Antiplasmodial activity against Plasmodium falciparum 3D7 assessed as inhibition of parasite growth at 5 uM. Type of assay: functional.

As to `O=[N+]([O-])c1ccc(C=NNc2nc3ccccc3[nH]2)cc1`, the inhibition in the assay on Theileria parva is 56%. Also, the inhibition at 5 µM in the assay on Plasmodium falciparum came to 99%.

For the compound `Fc1ccc2[nH]c3c(NCCCN4CCOCC4)ncnc3c2c1`, the inhibition with Theileria parva came to 23%. In addition, the inhibition at 5 µM with Plasmodium falciparum amounted to 98%.

In the case of `CNCCCNc1ccnc2cc(Cl)ccc12`, the inhibition in the assay on Theileria parva turned out to be 13%. Moreover, in the assay on Plasmodium falciparum, the inhibition at 5 µM was found to be 98%.

For orientation: inhibition means the drop in the measured response relative to a control, in per cent.
